Earlier results, collected in paper PMC7721954, “Preclinical comparison of four [^18F, ^natGa]rhPSMA-7 isomers: influence of the stereoconfiguration on pharmacokinetics” (EJNMMI Research, 2020).

Set-up: method as in PMID 16888726, doi:10.1016/j.jfluchem.2010.10.008
Details: cited from earlier work

## CC(C)(C)[Si](F)(c1ccc(C(=O)O)cc1)C(C)(C)C [SiFA-moiety, 4-(di-tert-butylfluorosilyl)benzoic acid]
  log P: 3.6
